A short description of series [1]: Apparent permeability in RRCK cells. To be noted: dog, MDCK. The class given is ADME, cell-based, Canis lupus familiaris, MDCKII-LE.
In series [2] the target is T1, Mineralocorticoid receptor (Homo sapiens, UniProt P08235).
T1 sequence (P08235 whole entry): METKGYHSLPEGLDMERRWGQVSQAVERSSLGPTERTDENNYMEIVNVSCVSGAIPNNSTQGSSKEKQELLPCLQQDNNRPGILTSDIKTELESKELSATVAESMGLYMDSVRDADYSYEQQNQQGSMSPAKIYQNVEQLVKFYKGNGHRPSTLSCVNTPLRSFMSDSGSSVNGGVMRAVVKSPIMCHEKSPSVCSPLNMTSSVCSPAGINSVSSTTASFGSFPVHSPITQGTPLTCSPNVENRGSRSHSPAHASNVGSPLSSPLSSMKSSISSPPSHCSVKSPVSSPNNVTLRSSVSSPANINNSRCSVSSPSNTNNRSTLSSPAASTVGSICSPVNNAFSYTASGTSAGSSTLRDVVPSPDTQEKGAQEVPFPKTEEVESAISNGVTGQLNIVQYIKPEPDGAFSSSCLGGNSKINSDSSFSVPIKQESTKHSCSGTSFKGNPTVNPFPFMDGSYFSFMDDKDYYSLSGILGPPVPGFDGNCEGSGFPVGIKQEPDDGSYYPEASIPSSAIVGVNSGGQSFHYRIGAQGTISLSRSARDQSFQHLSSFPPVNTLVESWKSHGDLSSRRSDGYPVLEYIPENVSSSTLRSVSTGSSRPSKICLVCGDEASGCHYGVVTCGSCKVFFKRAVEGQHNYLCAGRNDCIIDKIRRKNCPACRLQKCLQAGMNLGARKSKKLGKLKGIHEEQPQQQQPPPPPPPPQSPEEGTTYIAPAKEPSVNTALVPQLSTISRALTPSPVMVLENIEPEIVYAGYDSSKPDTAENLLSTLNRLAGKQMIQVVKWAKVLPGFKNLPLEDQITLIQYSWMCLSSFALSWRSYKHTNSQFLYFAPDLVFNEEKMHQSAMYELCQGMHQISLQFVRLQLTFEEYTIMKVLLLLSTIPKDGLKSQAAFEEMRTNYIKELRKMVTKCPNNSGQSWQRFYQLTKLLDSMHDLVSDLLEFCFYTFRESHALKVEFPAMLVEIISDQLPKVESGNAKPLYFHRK
Description: Displacement of [3H]-aldosterone from human GST-tagged MR ligand binding domain after 4 hrs by liquid scintillation counting

Series [3] deals with Salmonella typhimurium. The series can be described thus: Genotoxicity in Salmonella typhimurium by Ames test. To be noted: salmonella enterica subsp. enterica serovar typhimurium. It is filed as toxicity. On the technique in general: The Ames test uses bacterial strains that need an amino acid and regain growth without it when mutated back.
Series [4] addresses T2, Progesterone receptor (Homo sapiens, UniProt P06401).
T2 sequence (P06401 whole entry): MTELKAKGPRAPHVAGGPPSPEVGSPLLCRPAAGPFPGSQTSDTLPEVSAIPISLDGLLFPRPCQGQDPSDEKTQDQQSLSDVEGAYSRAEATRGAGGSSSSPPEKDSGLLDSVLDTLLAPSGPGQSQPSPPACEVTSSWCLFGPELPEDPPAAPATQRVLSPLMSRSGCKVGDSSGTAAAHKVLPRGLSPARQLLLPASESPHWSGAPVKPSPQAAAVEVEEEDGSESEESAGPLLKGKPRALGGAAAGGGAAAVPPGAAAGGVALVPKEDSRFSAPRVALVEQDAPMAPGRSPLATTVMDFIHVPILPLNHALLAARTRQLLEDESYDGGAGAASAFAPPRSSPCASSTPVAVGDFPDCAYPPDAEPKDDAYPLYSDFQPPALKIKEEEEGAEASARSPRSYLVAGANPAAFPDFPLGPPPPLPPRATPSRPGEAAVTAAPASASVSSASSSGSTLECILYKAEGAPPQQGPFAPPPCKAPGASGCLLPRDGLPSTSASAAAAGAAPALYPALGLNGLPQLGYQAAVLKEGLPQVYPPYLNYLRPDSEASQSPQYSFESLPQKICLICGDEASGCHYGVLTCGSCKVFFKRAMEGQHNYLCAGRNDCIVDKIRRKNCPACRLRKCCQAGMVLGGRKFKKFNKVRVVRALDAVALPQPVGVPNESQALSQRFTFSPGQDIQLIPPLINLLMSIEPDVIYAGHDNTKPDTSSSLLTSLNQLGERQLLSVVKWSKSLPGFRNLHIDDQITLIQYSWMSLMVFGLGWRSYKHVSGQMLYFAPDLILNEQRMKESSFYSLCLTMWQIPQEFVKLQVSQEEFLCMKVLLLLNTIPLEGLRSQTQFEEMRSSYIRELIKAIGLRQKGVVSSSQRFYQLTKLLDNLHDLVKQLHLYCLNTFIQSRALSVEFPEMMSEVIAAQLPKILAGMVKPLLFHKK
The series can be described thus: Displacement of [3H]-progesterone from recombinant human His-tagged PR-b after 4 hrs by liquid scintillation counting. In general terms: Loss of bound radioactivity is the signal in a displacement assay; it reports binding, not function.

Series [5] concerns Rattus norvegicus. The series can be described thus: Effect on reproductive system in Wistar Han rat at 30 to 500 mg/kg, po for 14 days. To be noted: in vivo, 336 h. The class given is ADME, organism-based.
Series [6] can be described thus: Apparent permeability across apical to basolateral side in RRCK cells. It is filed as ADME, cell-based, Canis lupus familiaris, MDCKII-LE. To be noted: dog, MDCK.
Series [7] is described as follows: Oral bioavailability in dog. The class given is ADME, organism-based, Canis lupus familiaris. To be noted: in vivo.
The nature of series [8]: Fraction unbound in human plasma. It is filed as ADME, cell-free.
Series [9] can be described thus: Oral bioavailability in rat. It is filed as ADME, organism-based. The settings on record: in vivo.
In series [10] the target is T3, Androgen receptor (Homo sapiens, UniProt P10275).
T3 sequence (P10275 whole entry): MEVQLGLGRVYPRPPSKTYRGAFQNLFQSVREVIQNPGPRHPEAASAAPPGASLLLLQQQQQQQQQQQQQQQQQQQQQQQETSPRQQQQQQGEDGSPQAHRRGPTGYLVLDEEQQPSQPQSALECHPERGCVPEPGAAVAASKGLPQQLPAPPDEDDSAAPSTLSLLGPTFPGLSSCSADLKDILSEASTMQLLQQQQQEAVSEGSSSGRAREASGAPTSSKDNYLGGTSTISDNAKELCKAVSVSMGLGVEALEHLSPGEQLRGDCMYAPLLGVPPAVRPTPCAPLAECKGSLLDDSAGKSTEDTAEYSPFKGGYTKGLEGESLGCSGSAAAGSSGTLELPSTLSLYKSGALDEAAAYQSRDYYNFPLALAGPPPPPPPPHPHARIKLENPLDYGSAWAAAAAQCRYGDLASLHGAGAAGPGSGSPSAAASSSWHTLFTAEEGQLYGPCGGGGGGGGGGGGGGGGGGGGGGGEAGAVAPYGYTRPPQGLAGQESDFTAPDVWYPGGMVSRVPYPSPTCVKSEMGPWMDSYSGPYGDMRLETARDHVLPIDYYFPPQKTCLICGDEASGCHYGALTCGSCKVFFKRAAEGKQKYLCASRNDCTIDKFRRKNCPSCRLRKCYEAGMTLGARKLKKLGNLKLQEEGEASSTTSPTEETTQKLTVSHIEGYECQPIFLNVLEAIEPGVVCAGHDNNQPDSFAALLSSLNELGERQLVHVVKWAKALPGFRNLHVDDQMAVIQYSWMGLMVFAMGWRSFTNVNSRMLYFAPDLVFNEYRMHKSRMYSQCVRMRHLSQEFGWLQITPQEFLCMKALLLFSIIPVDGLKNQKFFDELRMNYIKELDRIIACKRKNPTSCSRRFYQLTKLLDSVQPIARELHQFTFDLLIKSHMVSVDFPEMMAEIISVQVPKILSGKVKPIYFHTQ
Put plainly: Binding affinity to AR (unknown origin). It is filed as ADME.

The nature of series [11]: Fraction unbound in rat plasma. It is filed as ADME, cell-free.

What is called Papp is a coefficient for how fast a substance crosses the barrier. As a reminder, the IC50 is the concentration needed to halve the response being measured. As for `O=C1COc2ccc(N3CCOC[C@H]3c3ccccc3)cc2N1`, in series [1], the apparent permeability (Papp) was 29.3 ×10⁻⁶ cm/s. For the same compound, the concentration for half-maximal inhibition (IC50) in series [2] was found to be 0.401 µM.

As usually defined, the Papp A→B is the apparent permeability from the apical to the basolateral side of a cell layer. As usually defined, the bioavailability is the share of a dose that reaches the circulation, judged against a reference dose that is usually intravenous. Read a low bioavailability as little systemic uptake. One may read the fraction unbound as free concentration divided by total concentration. Consider `C[C@@H]1CN(c2ccc3c(n2)NC(=O)CO3)[C@H](c2ccccc2)CO1`, for which the Activity entry in series [3] and in series [5] was “Non-Toxic” throughout. Moreover, the IC50 in series [4] and in series [10] was greater than 10 µM each time. The Papp A→B in series [6] was 45.9 ×10⁻⁶ cm/s. In addition, the figures for the bioavailability in series [7] and in series [9] were 65% and 4 to 16%, respectively. Besides, the unbound share (fraction unbound) in series [8] and in series [11] was 0.15 each time.

Source of the values: ChEMBL document CHEMBL4024791, “Identification of Morpholino-2H-pyrido[3,2-b][1,4]oxazin-3(4H)-ones as Nonsteroidal Mineralocorticoid Antagonists” (J Med Chem, 2018).
